Results on 1 compound are retold here after ChEMBL document CHEMBL1201862, “PubChem BioAssay data set” (2004).

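Where inhibition never reached the appropriate level, the endpoint shown equals the highest concentration tested. Otherwise, values were interpolated linearly from a five-concentration, 48-hour dose response in 96-well plates. The concentration for 50% growth inhibition is given as GI50.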 Active and inactive are the calls of the source. Rule as the data show it: active = GI50 up to about 1.1 µM and inactive = higher.

Test systems include RPMI-8226; T47D; SF-539; MDA-MB-435; SR; COLO 205; MDA-MB-231; LOX IMVI; SF-268; BT-549; CCRF-CEM; K562; NCI-H23; A498; SK-MEL-5; SNB-19; A549; ACHN; NCI-H522; SW-620.
Common to all, as to assay: NCI-60 cell line screen, 48 h

As for `Oc1cc(Br)cc2cccnc12`, the GI50 in the test on RPMI-8226 was 1310 nM (inactive); in the test with T47D, 3590 nM (inactive); in the test on SF-539 it was 2160 nM (inactive); in the test on MDA-MB-435, 7290 nM (inactive); with SR, 560 nM (active); with COLO 205, 11600 nM (inactive). The GI50 in the test with MDA-MB-231 is 2520 nM (inactive); with LOX IMVI it was 908 nM (active); with SF-268, 698 nM (active); in the test with BT-549, 5150 nM (inactive); with CCRF-CEM it was 597 nM (active); in the test on K562, 820 nM (active). Further, the GI50 with NCI-H23 was 2580 nM (inactive); with A498 it was 8360 nM (inactive); with SK-MEL-5, 2380 nM (inactive); in the test with SNB-19, 15600 nM (inactive); with A549, 1520 nM (inactive); with ACHN it was 2630 nM (inactive). Also, the GI50 with NCI-H522 is 1640 nM (inactive); in the test on SW-620, 2560 nM (inactive).
